Laboratory results from patent publication US9968650B2, “Modified viral structural protein with antiviral activity” (priority 2011, dated 2018).
“Also recorded” adds a separate entry of the source.

What was measured:
[1] = target: T1, Cp149 dimer interface (Hepatitis B virus genotype D subtype adw, UniProt P03147); settings: cited from earlier work
T1 construct: (Cp149), which is the N-terminal first 149 residues of the core protein

[2] = target: Gag (Human immunodeficiency virus type 1 group M subtype B, UniProt P12493); settings: cited from earlier work
[3] = test system: HIV-1 NL4-3; settings: cited from earlier work
[4] = target: HIV-1 CA (Human immunodeficiency virus type 1 group M subtype B, UniProt P12493); settings: cited from earlier work
[5] = test system: HBV capsid assembly; assay: 90° light scattering assembly kinetics of core protein alone; assay type: biochemical, Hepatitis B virus (HBV); settings: 10 μM protein, 50 mM NaCl, first 800 seconds
Experimental: Light scattering was monitored at 90° using 400 inn excitation and emission wavelength with a Photon Technology International fluorometer for at least 800 seconds at 23° C. 10 μM protein (WT or V124W) was incubated with or without 20 μM HAP12 for 20 min prior to adding equal volume of 2× NaCl to a final concentration of 50 mM NaCl. Each sample was repeated 3-4 times independently.
90° Light scattering is a well-established method to monitor the virus assembly kinetics because of the significant difference between the size of the capsid and the dimer. HBV core protein assembly is induced by increasing the ionic strength in vitro, which is achieved by adding NaCl to the reaction system. Higher ionic strength leads to assembly faster and further due to the stronger association energy between dimers.

[6] = test system: HBV capsid assembly; assay: Extent of core protein assembly without HAP12 by size exclusion chromatography; assay type: biochemical, Hepatitis B virus (HBV); settings: 10 μM protein, 50 mM NaCl, 23° C., without HAP12
Experimental: (§1) The adyw strain of HBV Cp149-pET11c (Genbank accession no. J02202.1) construct was mutated to Cp149-V124W (GTG to TGG) with the QuikChange mutagenesis kit (Stratagene). […] V124W purification was performed as previously described for HBV Cp149-WT purification. Based on the biochemical studies in this paper, in the re-assembly step, using 50 mM NaCl instead of 500 mM NaCl to induce re-assembly yielded more capsid with slightly more aggressive assembly activity. Protein concentration was determined using an extinction coefficient of 70,025 M^−1 cm^−1 per V124W dimer at 280 nm, calculated by ExPASy Proteomics Server based on the protein sequence and assuming one disulfide bond per dimer WT dimer was purified exactly as previously described. The extinction coefficient of WT dimer is 60,900 M^−1 cm^−1 at 280 nm. Before assembly studies, frozen protein stock was dialyzed into 50 mM HEPES, pH 7.5 for at least 2×2 h at 4° C. The standard assembly buffer was 50 mM HEPES, pH 7.5 at 23° C. with varied NaCl concentrations. Protein stock was treated with 1% to 5% β-mercaptoethanol for 20 min before assembly.
(§2) To test for resistance to HAP molecules, 10 μM protein with varied HAP12 concentrations (2.5 to 60 μM) was induced to assemble at 50 mM NaCl. Before adding 10× NaCl, protein was incubated with HAP12 at 23° C. for 20 min. Each reaction was incubated at 23° C. for 24 h to equilibrate. Under these conditions, 24 h was long enough to allow reactions to reach equilibrium. Capsid, abnormal structures and dimer concentrations were determined by SEC as described above.

[7] = target: T2, HBV capsid assembly (Hepatitis B virus genotype D subtype adw, UniProt P03147); assay: as above; assay type: biochemical
T2 construct: (Cp149), which is the N-terminal first 149 residues of the core protein; made in house; host or cells: E. coli BL21 (DE3) (printed for V124W; WT 'as previously described')
Experimental: as §1, §2

[8] = test system: HBV capsid assembly; assay: Size exclusion chromatography of equilibrium capsid assembly and calculation of thermodynamic parameters; assay type: biochemical, Hepatitis B virus (HBV); settings: 100 mM NaCl, 23° C.; for pseudo-critical concentration: 72 h equilibration
Experimental: as §1
WT and V124W at varied concentrations (WT, 40 to 80 μM; V124W, 2.5 to 30 μM), were induced to assemble at 100 mM NaCl to equilibration for 72 h or longer at 23° C. […] Capsid and dimer concentrations in assembly reactions were determined by size exclusion chromatography (SEC) through a 21 ml Superose 6 column. ΔGcontact and KD,apparent were calculated as previously described. KD,apparent was the average of the equilibrium dimer concentrations which were nearly constant.

[9] = test system: core protein; assay: Western blot analysis of core protein level in transfected Huh7 cells; assay type: cell-based, Hepatitis B virus (HBV); settings: normalized to GFP, WT = 100%, SD in parenthesis
From the text: (§3) All HBV plasmids used in cell culture experiments were derived from subtype ayw (Genbank accession no. V01460). These plasmids express pgRNA under the control of the cytomegalovirus (CMV) immediate early promoter. […] Plasmids C^WT or C^V124W express core protein but not P or envelope proteins and lack a functional encapsidation signal, GFP protein was expressed from a separate plasmid (provided by Bill Sugden, UW-Madison). Details of construction and sequence of any plasmid will be provided upon request.
The human hepatoma cell line Huh7 was used to study HBV replication. Cells were grown in 60 mm plates at 37° C. in 5% CO2, in DMEM/F12 medium supplemented with 5% FBS (Invitrogen, Grand Island, N.Y.). […]
A fraction of cytoplasmic lysate was used to run a 15% SDS-PAGE, followed by transfer of proteins to PVDF-FL (Millipore®, Billerica, Mass.) in methanol transfer buffer (details of SDS-PAGE and transfer solutions provided upon request). […] Core protein was detected using a rabbit α-core antibody (Austral Biologicals®, San Ramon, Calif.) at a dilution of 1:500, and a goat α-rabbit IRDye800CW antibody (Li-Cor®) at a dilution of 1:10,000. GFP was detected using a mouse α-GFP antibody (Santa Cruz® Biotechnology, San Cruz, Calif.) at a dilution of 1:500, and a goat α-mouse IRDye680LT antibody (Li-Cor®) at a dilution of 1:10,000. […] Core levels were normalized to GFP levels for quantitation. […]

[10] = test system: HBV replication; assay: Southern blot analysis of encapsidated HBV DNA in transfected Huh7 cells; assay type: cell-based, Hepatitis B virus (HBV); settings: WT normalized to 100%, SD in parenthesis, * values at limit of detection
From the text: as §3
The human hepatoma cell line Huh7 was used to study HBV replication. Cells were grown in 60 mm plates at 37° C. in 5% CO2, in DMEM/F12 medium supplemented with 5% FBS (Invitrogen, Grand Island, N.Y.). Cells were approximately 75% confluent or greater at time of transfection. DNA transfections were performed using calcium phosphate precipitation. For experiments using WT^P+C+ and V124W^P+C+, 5 μg of total plasmid mass was transfected. Each transfection experiments were repeated three times independently. For V124W titration experiment, 2 μg WT^P+C+ and varied C^V124W (0 to 8 μg) were used. A filler plasmid pCMV-Sport6 was used to keep the total plasmid mass at 10 μg. 0.125 μg of the GFP expression plasmid was used in every transfection. Typically, medium containing the calcium phosphate precipitate was removed after 16 hours, fresh medium added, and the cultures were grown for an additional 96 hours.
Nucleic acid from cytoplasmic capsids was isolated as described previously. Briefly, cells were lysed in a solution containing 50 mM Tris, 1 mM EDTA, 0.2% NP40, pH 8.0. Nuclei were pelleted via centrifugation and supernatant was collected. A fraction of this lysate was used for detection of core protein and GFP. The remainder of the cytoplasmic lysate was treated with 45 units of micrococcal nuclease (Worthington Biochemicals, Lakewood, N.J.) in the presence of 2 mM CaCl2 to digest plasmid DNA and unencapsidated pgRNA, followed by treatment with 0.4% SDS and 0.4 mg/ml Pronase® (Roche, Nutley, N.J.) to digest nucleocapsids and P protein. Encapsidated nucleic acids were extracted with 1:1 phenokchloroform, precipitated with ethanol and NaCl, and re-suspended in 30 μl of a solution of 10 mM Tris, 0.1 mM EDTA, pH 8.0.
An aliquot of viral DNA was electrophoresed through a 1.25% agarose gel. DNA was denatured and neutralized in situ in 0.5 N NaOH/1.5 M NaCl and 1 M Tris/1.5 M NaCl, respectively, followed by passive transfer to Hybond-N (GE® Lifesciences, Piscataway, N.J.) in 10×SSC. Viral DNA was detected on the membrane using an equimolar pool of oligonucleotides that detected (−) DNA. […] Levels of DNA were measured using the software ImageQuant® 5.2 (Molecular Dynamics). DNA levels were normalized to GFP levels as determined previously by western blot. […]

T1 sequence (P03147 1-149): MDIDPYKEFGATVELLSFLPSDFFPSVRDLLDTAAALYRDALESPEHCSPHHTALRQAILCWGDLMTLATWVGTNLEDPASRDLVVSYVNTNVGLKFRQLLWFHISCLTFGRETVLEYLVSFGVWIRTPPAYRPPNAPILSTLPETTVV
T2 sequence (P03147 1-149): as above

With `COC(=O)C1=C(C)NC(c2ncc(F)cc2F)=N[C@H]1c1ccc(F)cc1Cl` [BAY41-4109] as the compound, how does the “HAP stoichiometry necessary to generate aberrant structures” value ([1]; pure BAY41-4109) read?
The value was “greater than one HAP per two dimers”.

With `Cc1[nH]c2ccccc2c1CC(=O)N[C@@H](Cc1ccccc1)C(=O)N(C)c1ccccc1` [PF-3450074] as the compound, how does the Gag association [2] read?
The Gag association was “does not inhibit”.

What about the “antiviral activity against HIV” value [3] of the same compound?
Its value is “inhibit HIV replication”.

And the “rate of CA multimerization” value [4]?
The value was “significant increase”.

Which “association energy at the dimer interface” value ([1]; 150 mM NaCl 37° C., without HAP) does the source give for “WT: wild type HBV core protein; Cp149 is the N-terminal 149-residue assembly domain, used as control” here?
The value was -3.87 kcal/mol.

What about the “assembly kinetics without HAP12 (in words)” value [5] of the same compound?
Its value is “did not assemble”.

And the “extent of assembly (dimers assembled into capsids)” value [6]?
Its value is “no assembly”.

And the “extent of assembly (dimers assembled into capsids)” value ([6]; listed as wild type Cp149)?
Its value is “does not assemble at all; also recorded: no assembly”.

What about the “capsid formation at 150 mM NaCl” value ([7]; 10 μM protein, 150 mM NaCl (data not shown)) of the same compound?
Its value is “did not observe any capsid formation”.

What about the “concentration needed to see any assembly” value ([7]; under similar conditions (NaCl-induced assembly, FIG. 10)) of the same compound?
Its value is 45 µM.

And the ΔGcontact [8]?
The ΔGcontact was -2.74 ± 0.04 kcal/mol.

And the pseudo-critical concentration [8]?
The pseudo-critical concentration was “about 43 μM”.

And the pseudo-critical concentration ([8]; listed as wild type Cp149)?
The pseudo-critical concentration was 43.6 ± 5.1 µM.

And the ΔGcontact ([8]; listed as wild type Cp149)?
The ΔGcontact was -2.74 ± 0.04 kcal/mol.

And the Kd ([8]; read-out: KD, apparent)?
Its Kd is 43.3 ± 4.97 µM.

What about the core protein [9] of the same compound?
The core protein was 100% (39%).

And the dlDNA [10]?
Its dlDNA is 100% (27%).

And the ssDNA [10]?
The ssDNA was 100% (19%).

What about the “total DNA” value [10] of the same compound?
Its value is 100% (19%).

And the rcDNA ([10]; three independent transfections)?
Its rcDNA is 100% (46%).
